Assay results reported in patent US11541083B2, “Methods and probiotic compositions for the treatment of bone disorders” (Research Development Foundation, priority 2018, dated 2023).

System: ovariectomized mice
Assay: 3-point bending biomechanical test on femur of ovariectomized mice after single microbe transplantation
Assay type: in vivo
Method: Animals: All C57BL/6J mice were purchased from Janvier Labs, and kept in a specific pathogen-free (SPF) facility in individually ventilated cages. All the mice were in a 12 h day/night cycle and fed a standard chow diet (16.2 MJ/kg Gross Energy; 9 kJ % Fat, 33 kJ % Protein, 58 kJ % Carbohydrates, V1534-727, Ssniff, Germany). All the mice were either male and entered the experiment at 8 weeks of age, or female starting at 16 weeks of age (for the ovariectomy experiment). Acclimatized animals were allocated into groups based on their body weight to ensure equal starting points. Warmth exposure was done at 34° C. in a light and humidity-controlled climatic chamber (TSE, Germany) in SPF conditions using individually ventilated cages All mice were sacrificed after 5 h fasting. Bone samples for CT-scan and biomecanics analysis were stored in a humid package at −20° C. All animal experiments were approved by the Swiss federal and Geneva cantonal authorities for animal experimentation (Office Vétérinaire Fédéral and Commission Cantonale pour les Expériences sur les animaux de Genève).
Ovariectomy: Mice were anesthetised with Xylazin/Ketamin (injection of 120 μl of a mixture of 120 mg/kg ketamine and 16 mg/kg xylazine) and shaved below the ribs on the back side. Betadine was applied to the area for appropriate disinfection. After a 1-2 cm incision through the skin and the muscle layer just below the ribs, the ovary was localized, the fallopian tube ligated with dissolving suture and the ovary removed. […]
Biomechanical analysis of the bones: We used a 3-points bending test to measure biomechanical parameters of the bone. […] Mechanical resistance to failure (displacement and load applied) was measured using a servo-controlled electromechanical system (Instron 1114, Instron corp., High Wycombe, UK) with actuator displaced at 2 mm/minute. Ultimate force (maximal load, measured in Newtons [N]), Yield point (N), stiffness (elastic energy, N/mm), and energy to fracture (surface under the curve of the plastic region, N*mm) were calculated. Young's modulus (MPa) was determined.

[1] = gavage every second day for 2 month, starting 3 days post-surgery

Substance: Lactobacillus reuteri
- increased displacement (post-yield displacement), femur [1]: reduce or prevent
- reduction in ultimate force (ultimate strength), femur [1]: reduce or prevent the reduction
- bone fragility induced by ovariectomy (legend of FIGS. 7A-C, overall statement): can reduce or prevent
